Source: patent US12180222B2, “Crystal forms of thiophene derivatives” (Tianjin Hemay Pharmaceutical Co., Ltd, priority 2018, dated 2024)

Tests used:
Format in all cases: physicochemical
[1] = Dissolution rate of crystal form in water; conditions: about 25 mg in 900 mL water, 37° C., rotating speed 100/minute
Experimental: The crystal form III of (S)—N-[5-[l-(3-ethoxy-4-methoxyphenyl)-2-(methylsulfonyl)ethyl]-4,6-dioxo-5,6-dihydro-4H-thieno[3,4-c]pyrrole-1-yl]acetamide prepared according to the process in Example 1 was tested.
About 25 mg of crystal form III of (S)—N-[5-[1-(3-ethoxy-4-methoxyphenyl)-2-(methylsulfonyl)ethyl]-4,6-dioxo-5,6-dihydro-4H-thieno[3,4-c]pyrrole-1-yl]acetamide was added to 900 mL of water. The mixture was stirred at a rotating speed of 100/minute at 37° C. for 90 minutes. The supernatant was filtered and diluted. The concentration of the diluted solution (a mg/mL) was determined by ultraviolet spectrophotometer. The dissolution rate was calculated according to the formula 900a/25×100%.

[2] = High temperature stability (sealed oven at 40° C., liquid chromatogram and DSC)
Experimental: (§1) Crystal form III of (S)—N-[5-[1-(3-ethoxy-4-methoxyphenyl)-2-(methylsulfonyl)ethyl]-4,6-dioxo-5,6-dihydro-4H-thieno[3,4-c]pyrrole-1-yl]acetamide prepared according to the process of Example 1 was placed in a sealed oven at 40° C. After 1 month, liquid chromatogram and DSC were tested.

[3] = Accelerated stability (40° C. and Rh=75%, liquid chromatogram and DSC)
Experimental: as §1, with “stability text box” for “sealed oven”, “C. and Rh=75%.” for “C.”

[4] = Aqueous solution balance stability (crystal form by XRPD after equilibrium in water); conditions: 37° C., 24 hours
Experimental: About 0.5 g of crystal form III of (S)—N-[5-[1-(3-ethoxy-4-methoxyphenyl)-2-(methylsulfonyl)ethyl]-4,6-dioxo-5,6-dihydro-4H-thieno[3,4-c]pyrrole-1-yl]acetamide was added to 40 mL of water. The mixture was stirred at 37° C. for 24 hours. The suspension was filtered. After wet solid was dried, crystal form of powders was tested with X-ray powder diffraction (XRPD).

[5] = Moisture absorption stability / hygroscopicity (RH=80%); conditions: RH=80% (saturated ammonium chloride solution) until weight balanced
Experimental: Moisture absorption of crystal form III of (S)—N-[5-[1-(3-ethoxy-4-methoxyphenyl)-2-(methylsulfonyl)ethyl]-4,6-dioxo-5,6-dihydro-4H-thieno[3,4-c]pyrrole-1-yl]acetamide was studied. Crystal form III of (S)—N-[5-[1-(3-ethoxy-4-methoxyphenyl)-2-(methylsulfonyl)ethyl]-4,6-dioxo-5,6-dihydro-4H-thieno[3,4-c]pyrrole-1-yl]acetamide was placed in a drier containing saturated ammonium chloride solution (RH=80%) until weight was balanced. The crystal form was tested with XRPD.
Crystal form III of (S)—N-[5-[1-(3-ethoxy-4-methoxyphenyl)-2-(methylsulfonyl)ethyl]-4,6-dioxo-5,6-dihydro-4H-thieno[3,4-c]pyrrole-1-yl]acetamide prepared according to the process of Example 1 was tested.

SMILES: CCOc1cc([C@@H](CS(C)(=O)=O)N2C(=O)c3csc(NC(C)=O)c3C2=O)ccc1OC [Crystal Form III, (S)—N-[5-[1-(3-ethoxy-4-methoxyphenyl)-2-(methylsulfonyl)ethyl]-4,6-dioxo-5,6-dihydro-4H-thieno[3,4-c]pyrrole-1-yl]acetamide]
- Dissolution Rate (%) ([1]; time 0 min): 0%
- Dissolution Rate (%) ([1]; time 15 min): 32.2%
- Dissolution Rate (%) ([1]; time 30 min): 46.3%
- Dissolution Rate (%) ([1]; time 45 min): 55.1%
- Dissolution Rate (%) ([1]; time 60 min): 61.8%
- Dissolution Rate (%) ([1]; time 75 min): 66.5%
- Dissolution Rate (%) ([1]; time 90 min): 71.5%
- stability under high temperature conditions ([2]; 40° C., 1 month): good stability
- Relevant Substance Contents at Day 0 (%) ([2]; Day 0, before storage at 40° C.): 0.07%
- Relevant Substance Contents after 1 Month (%) ([2]; storage 40° C., sealed oven, 1 month): 0.09%
- stability under high-temperature and high-humidity conditions ([3]; 40° C. and Rh=75%, 1 month): good stability
- Relevant Substance Contents at Day 0 (%) ([3]; Day 0, before storage at 40° C. RH = 75%): 0.07%
- Relevant Substance Contents after 1 Month (%) ([3]; storage 40° C. RH = 75%, 1 month): 0.09%
- stability in water [4]: good stability
- Moisture Absorption %) [5]: 1.17%
- Weight Increase ([5]; mAPI 0.511 g): 0.006 g
